Patent publication US20180008587A1, “THIOHYDANTOIN ANDROGEN RECEPTOR ANTAGONISTS FOR THE TREATMENT OF CANCER” (Jaressen Pharmaceutica NV, priority 2016, published 2018)
Positions count from the first letter of the chain named.

Experiments:
[1] = biological target: T1, F876L-VP16 (Homo sapiens, UniProt P10275, F877L); assay: AR-VP16 DNA binding assay, HepG2; assay type: cell-based; details: HepG2, antagonist mode, 1 nM R1881, 48 hours
T1 construct: VP16 (fusion partner); expressed in transfected cells; host or cells: HepG2
T1 sequence (P10275 1-920 F877L): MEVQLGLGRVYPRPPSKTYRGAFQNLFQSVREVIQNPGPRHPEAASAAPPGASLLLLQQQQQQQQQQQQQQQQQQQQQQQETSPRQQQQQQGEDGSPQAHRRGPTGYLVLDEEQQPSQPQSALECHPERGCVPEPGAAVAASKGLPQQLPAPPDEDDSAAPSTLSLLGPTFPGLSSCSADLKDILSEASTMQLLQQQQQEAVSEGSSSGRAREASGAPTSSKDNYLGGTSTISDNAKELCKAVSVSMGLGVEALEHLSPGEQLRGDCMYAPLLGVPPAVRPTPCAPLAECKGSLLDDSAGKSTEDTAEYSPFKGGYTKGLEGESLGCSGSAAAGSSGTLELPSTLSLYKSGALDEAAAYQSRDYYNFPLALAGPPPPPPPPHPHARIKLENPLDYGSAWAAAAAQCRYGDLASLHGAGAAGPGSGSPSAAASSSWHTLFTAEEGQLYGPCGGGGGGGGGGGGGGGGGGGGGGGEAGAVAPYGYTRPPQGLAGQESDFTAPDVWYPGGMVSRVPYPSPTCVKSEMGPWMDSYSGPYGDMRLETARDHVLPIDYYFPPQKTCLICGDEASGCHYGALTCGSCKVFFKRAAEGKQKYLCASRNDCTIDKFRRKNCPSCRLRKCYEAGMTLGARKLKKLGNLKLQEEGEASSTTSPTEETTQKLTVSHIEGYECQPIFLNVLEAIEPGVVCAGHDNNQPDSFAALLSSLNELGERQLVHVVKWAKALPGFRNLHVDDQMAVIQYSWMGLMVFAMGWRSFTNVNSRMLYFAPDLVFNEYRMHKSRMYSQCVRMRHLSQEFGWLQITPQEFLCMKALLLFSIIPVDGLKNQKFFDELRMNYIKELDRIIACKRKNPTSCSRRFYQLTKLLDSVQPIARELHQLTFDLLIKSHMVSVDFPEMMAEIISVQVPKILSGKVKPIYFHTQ
Protocol: HepG2 cells were maintained in EMEM supplemented with 10% FBS. One day before transfection, the media was changed to EMEM with 10% CSS. […] Cells were then trypsinized, counted and resuspended at 500,000 cells/mL. For agonist mode, the compounds were serially diluted and 50 μL of the compound was added per well. 50 μL of the cells were added to each well and incubated for 48 hours. For antagonist mode, a final concentration of 90 pM (VP16 AR) or 1 nM (VP16 F876L) R1881 was added to the plate and incubated for 48 hours. The plates were then assayed using SteadyGlo and read on the Envision. Percent Stimulation and Inhibition were determined and analyzed using GraphPad Prism.

[2] = biological target: T2, AR T877A (Homo sapiens, UniProt P10275, T878A); assay: Luciferase transcriptional reporter assay, mutant AR, HepG2, antagonist mode; assay type: cell-based; details: HepG2, 90 pM R1881, 48 hours; * denotes incomplete inhibition (otherwise 100%); read-out: Antagonism; IC50, AR construct T877A
T2 construct: expressed in transfected cells; host or cells: HepG2
T2 sequence (P10275 1-920 T878A): T1 sequence (P10275 1-920 F877L) with L877F, T878A
Protocol: HepG2 cells were maintained in EMEM supplemented with 10% FBS. One day before transfection, the media was changed to EMEM with 10% CSS. T-150 flasks were transiently transfected using 120 μL Lipofectamine 2000 (Life Technologies), 30 μg mutant cDNA (expression vector)—mutant cDNA tested were L701H, T877A, W741C and H874Y—and 40 μg 4×ARE-Luciferase (reporter vector) in OptiMEM and the flasks were incubated overnight. Cells were then trypsinized, counted and resuspended at 500,000 cells/mL. For agonist mode, the compounds of Formula (I) are serially diluted and 50 μL of the compound added per well. 50 μL of the cells are added to each well and incubated for 48 hours. For antagonist mode, a final concentration of 90 pM R1881 was added to the diluted compounds and incubated for 48 hours. The plates were then assayed using SteadyGlo and read on the Envision. Percent Stimulation and Inhibition is determined and analyzed using GraphPad Prism.
All values are calculated relative to the activity of R1881 induced androgen receptor activity (n≧3).

Structure (SMILES) | IC50 [1] | IC50 [2]
N#Cc1ncc(N2C(=O)C3(CCC3)N(c3ccc(C(=O)NCCCO)c(F)c3)C2=S)cc1C(F)(F)F [Cpd 40, 4-[6-[6-cyano-5-(trifluoromethyl)-3-pyridyl]-5-oxo-7-thioxo-6,8-diazaspiro[3.4]octan-8-yl]-2-fluoro-N-(3-hydroxypropyl)benzamide] | 0.994 µM | 7.51 µM
N#Cc1ncc(N2C(=O)C3(CCC3)N(c3ccc(OC4CCNCC4)cc3)C2=S)cc1C(F)(F)F [Cpd 35, 5-[5-oxo-8-[4-(4-piperidyloxy)phenyl]-7-thioxo-6,8-diazaspiro[3.4]octan-6-yl]-3-(trifluoromethyl)pyridine-2-carbonitrile] | 2.74 µM | 3.59 µM
